Structures can show the parent of a compound that is named as a salt.

This test concerns the target T1, PDEV (Homo sapiens, UniProt O76074).
T1 construct: PDEV was isolated from rabbit and human tissues according to the protocol described by Boolell et al; from tissue; host or cells: human tissue, homogenate supernatant fractionated on Mono Q
As to the kind of experiment: PDE assay: inhibition of PDEV isolated from human tissue. The test is classed as biochemical. Particulars: for IC50: PDEV inhibitory activity. The method, then:
Briefly, rabbit or human tissues were homogenized in an ice-cold buffer solution containing 20 mM HEPES (pH 7.2), 0.25M sucrose, 1 mM EDTA, and 1 mM phenylmethylsulphonyl fluoride (PMSF). The homogenates were centrifuged at 100,000 g for 60 minutes at 4° C. The supernatant was filtered through […] filter and loaded on a Pharmacia Mono Q anion exchange column (1 ml bed volume) that was equilibrated with 20 mM HEPES, 1 mM EDTA and 0.5 mM PMSF. After washing out unbound proteins, the enzymes were eluted with a linear gradient of 100-600 mM NaCl in the same buffer (35 to 50 ml total, depending on the tissue. Enzymes from the skeletal muscle, corpus cavernosum, retina, heart and platelet were eluted with 35, 40, 45, 50, and 50 ml respectively.) The column was run at a flow rate of 1 ml/min and 1 ml fractions were collected. The fractions comprising various PDE activities were pooled separately and used in later studies.
The assays were adapted to a 96-well format. The enzyme was assayed in 5 mM MgCl2, 15 mM Tris HCl (pH 7.4), 0.5 mg/ml bovine serum albumin, 1 μM cGMP or cAMP, 0.1 μCi [^3H]-cGMP or [^3H]-cAMP, and 2-10 μl of column elution. The total volume of the assay was 100 μl. The reaction mixture was incubated at 30° C. for 30 minutes. The reaction was stopped by boiling for 1 minute and then cooled down on ice. The resulting [^3H]5′-mononucleotides were further converted to uncharged [^3H]-nucleosides by adding 25 μl 1 mg/ml snake venom (Ophiophagus hannah) and incubating at 30° C. for 10 minute. The reaction was stopped by the addition of 1 ml Bio-Rad AG1-X2 resin slurry (1:3). All the charged nucleotides were bound by the resin and only uncharged [^3H]-nucleosides remained in the supernatant after centrifuging. An aliquot of 200 μl was taken and counted by liquid scintillation. PDE activity was expressed as pmol cyclic nucleotide hydrolyzed/min/ml of enzyme preparation.
Inhibitor studies were carried out in assay buffer with a final concentration of 10% DMSO.
The % inhibition of the maximum substrate conversion (by the enzyme in the absence of inhibitor) was calculated for each test compound concentration. Using GraphPad Prism's nonlinear regression analysis (sigmoidal dose response), the % inhibition vs log of the test compound concentration was plotted to determine the IC50. Under conditions where substrate concentration <<Km of the enzyme (Km=substrate concentration at which half of the maximal velocity of the enzyme is achieved), Ki is equivalent to the IC50 value.
Unless otherwise noted, PDEV inhibitory activities were measured using human tissue. The abbreviation “stereo” refers to the stereogenic configuration, the abbreviation “Rac” shall denote a racemic mixture.

In the case of `Oc1c2c(nc3ccccc13)C(c1ccc3c(c1)OCO3)N(c1ncc(-c3cccnc3)cn1)C2` (racemic) [Compound 56, 1,2,3,4-Tetrahydro-2-[5-(3-pyridinyl)-pyrimidin-2-yl]-3-(3,4-methylenedioxyphenyl)-9H-pyrrolo-[3,4-b]quinolin-9-one], 1.24 nM corresponded to half-maximal inhibition (IC50).
Same read-out and setting: with `COc1ccc(-c2cnc(N3Cc4c([nH]c5ccccc5c4=O)C3c3ccc4c(c3)CCO4)nc2)cc1` (stereo not drawn) [Compound 39, 1,2,3,4-Tetrahydro-2-[5-(4-methoxyphenyl)-pyrimidin-2-yl]-3-(2,3-dihydrobenzofuranyl)-9H-pyrrolo-[3,4-b]quinolin-9-one] the figure was 0.47 nM; with `O=C(c1cc2ccc(O)cc2o1)N1Cc2c(nc3ccccc3c2O)C1c1ccc2c(c1)OCO2` (racemic) [Compound 9, 1,2,3,4-Tetrahydro-3-(3,4-methylenedioxyphenyl)-2-(6-hydroxy-2-benzo-furoyl)-9H-pyrrolo[3,4-b]quinolin-9-one], 0.46 nM.
Compound `Oc1c2c(nc3ccccc13)C(c1ccc3c(c1)OCO3)N(c1ncccn1)C2` (racemic) [Compound 11, 1,2,3,4-Tetrahydro-2-(pyrimidin-2-yl)-3-(3,4-methylenedioxyphenyl)-9H-pyrrolo-[3,4-b]quinolin-9-one] had an IC50 of 3.73 nM.
The compound `O=C(c1ccc(-c2ccc(O)cc2)o1)N1Cc2c(nc3ccccc3c2O)C1c1ccc2c(c1)OCO2` (racemic) [Compound 22, 1,2,3,4-Tetrahydro-3-(3,4-methylenedioxyphenyl)-2-[5-(4-hydroxyphenyl)furoyl]-9H-pyrrolo[3,4-b]-quinolin-9-one] had an IC50 of 0.86 nM.
Same read-out and setting: with `COc1ccc(-c2ccc(C(=O)N3Cc4c([nH]c5ccccc5c4=O)C3c3ccc4c(c3)OCO4)o2)cc1` (stereo not drawn) [Compound 21, 1,2,3,4-Tetrahydro-3-(3,4-methylenedioxyphenyl)-2-[5-(4-methoxyphenyl)-furoyl]-9H-pyrrolo[3,4-b]-quinolin-9-one] the figure was 1.93 nM; with `O=c1c2c([nH]c3ccccc13)C(c1ccc3c(c1)OCO3)NC2` (racemic) [Compound 4, 1,2,3,4-Tetrahydro-3-(3,4-methylenedioxyphenyl)-9H-pyrrolo-[3,4-b]quinolin-9-one, hydrochloride salt], 664 nM; with `Oc1c2c(nc3ccccc13)C(c1ccc3c(c1)CCO3)N(c1ncc(Br)cn1)C2` (racemic) [Compound 74], 1.9 nM.
Compound `O=c1c2c([nH]c3ccccc13)C(c1ccc3c(c1)CCO3)NC2` (racemic) [Compound 17, 1,2,3,4-Tetrahydro-3-(2,3-dihydrobenzofuran-5-yl)-9H-pyrrolo-[3,4-b]quinolin-9-one, hydrochloride salt] returned an inhibition at 10 µM (10 μM test compound) of 65%.
For the compound `COC(=O)c1ccc(-c2ccc(C(=O)N3Cc4c([nH]c5ccccc5c4=O)C3c3ccc4c(c3)OCO4)o2)cc1` (stereo not drawn) [Compound 24, 1,2,3,4-Tetrahydro-3-(3,4-methylenedioxyphenyl)-2-[5-(4-methoxycarbonylphenyl)-furoyl]-9H-pyrrolo[3.4-b]-quinolin-9-one], the IC50 came to 1.21 nM.
On to `Cc1ccc(-c2cnc(N3Cc4c([nH]c5ccccc5c4=O)C3c3ccc4c(c3)OCO4)nc2)cc1` (racemic) [Compound 7, 1,2,3,4-Tetrahydro-2-[5-(4-methylphenyl)-pyrimidin-2-yl]-3-(3,4-methylenedioxyphenyl)-9H-pyrrolo-[3,4-b]quinolin-9-one], for which the IC50 amounted to 0.325 nM.
In the case of `O=C(c1ccc(-c2ccc([N+](=O)[O-])cc2)o1)N1Cc2c(nc3ccccc3c2O)C1c1ccc2c(c1)OCO2` (racemic) [Compound 16, 1,2,3,4-Tetrahydro-3-(3,4-methylenedioxyphenyl)-2-[5-(4-nitrophenyl)-furoyl]-9H-pyrrolo[3,4-b]quinolin-9-one], the IC50 was 0.39 nM.
For `O=c1c2c([nH]c3ccccc13)[C@@H](c1ccc3c(c1)CCO3)N(Cc1ccccc1)C2` [Compound 77, (R)-1,2,3,4-Tetrahydro-2-benzyl-3-(2,3-dihydrobenzofuran-5-yl)-9H-pyrrolo-[3,4-b]quinolin-9-one], 62.7 nM corresponded to half-maximal inhibition (IC50).
`O=C(c1ccc(-c2ccc(OCCN3CCCC3)cc2)o1)N1Cc2c(nc3ccccc3c2O)C1c1ccc2c(c1)OCO2` (racemic) [Compound 45, 1,2,3,4-Tetrahydro-3-(3.4-methylenedioxyphenyl)-2-(5-(4-(2-(1-pyrrolidinyl)ethoxy)phenyl)-furoyl)-9H-pyrrolo[3,4-b]quinolin-9-one] registered an IC50 of 1.33 nM.
As to `Oc1c2c(nc3ccccc13)C(c1ccc3c(c1)CCO3)N(c1ncccn1)C2` (racemic) [Compound 123, 3-(2,3-Dihydro-benzofuran-5-yl)-2-pyrimidin-2-yl-1,2,3,4-tetrahydro-pyrrolo[3,4-b]quinolin-9-one], it took 12.8 nM to reach half-maximal inhibition (IC50).
Compound `O=Cc1ccc(-c2ccc(C(=O)N3Cc4c([nH]c5ccccc5c4=O)C3c3ccc4c(c3)OCO4)o2)cc1` (stereo not drawn) [Compound 23, 1,2,3,4-Tetrahydro-3-(3,4-methylenedioxyphenyl)-2-[5-(4-formylphenyl)-furoyl]-9H-pyrrolo[3,4-b]-quinolin-9-one] registered an IC50 of 1.76 nM.
For the compound `O=c1c2c([nH]c3ccccc13)C(c1ccc3c(c1)OCO3)N(c1ncc(-c3ccncc3)cn1)C2` (racemic) [Compound 57, 1,2,3,4-Tetrahydro-2-[5-(4-pyridinyl)-pyrimidin-2-yl]-3-(3,4-methylenedioxyphenyl)-9H-pyrrolo-[3,4-b]quinolin-9-one], the IC50 came to 0.84 nM.
Still for that read-out and setting: with `O=C(c1ccc(-c2ccco2)o1)N1Cc2c(nc3ccccc3c2O)C1c1ccc2c(c1)OCO2` (racemic) [Compound 117] the figure was 4.75 nM; with `O=c1c2c([nH]c3ccccc13)C(c1ccc3c(c1)OCO3)N(c1ncc(Br)cn1)C2` (racemic) [Compound 55, 1,2,3,4-Tetrahydro-2-(5-bromopyrimidin-2-yl)-3-(3,4-methylenedioxyphenyl)-9H-pyrrolo-[3,4-b]quinolin-9-one], 4.48 nM.
Compound `Oc1c2c(nc3ccccc13)C(c1ccc3c(c1)OCO3)N(c1ncc(-c3cccnc3)cn1)C2` (racemic) [Compound 100] gave an IC50 of 0.52 nM.
In turn, `O=c1c2c([nH]c3ccccc13)C(c1ccc3c(c1)OCO3)N(c1ncc(-c3ccncc3)cn1)C2` (racemic) [Compound 99] showed an IC50 of 0.84 nM.
`O=C(c1ccc(-c2ccsc2)o1)N1Cc2c(nc3ccccc3c2O)C1c1ccc2c(c1)OCO2` (racemic) [Compound 112]: the concentration for half-maximal inhibition (IC50) was 0.699 nM.
As for `COc1ccc(-c2cnc(N3Cc4c([nH]c5ccccc5c4=O)C3c3ccc4c(c3)OCO4)nc2)cc1OC` (racemic) [Compound 1, 1,2,3,4-Tetrahydro-2-[5-(3,4-dimethoxyphenyl)-pyrimidin-2-yl]-3-(3,4-methylenedioxyphenyl)-9H-pyrrolo-[3,4-b]quinolin-9-one], the midpoint of inhibition, the IC50, lay at 0.165 nM.
As for `COC(=O)c1ccc(/C=C/C(=O)N2Cc3c([nH]c4ccccc4c3=O)C2c2ccc3c(c2)CCO3)cc1` (racemic) [Compound 20, (E)-4-[3-Oxo-3-[1,2,3,4-tetrahydro-3-(2,3-dihydrobenzofuran-5-yl)-9H-pyrrolo-[3,4-b]quinolin-9-one-2-yl]-1-propenyl]benzoic acid, methyl ester], the concentration for half-maximal inhibition (IC50) worked out at 0.53 nM.
